Source: patent US20130053243A1, “PLANTS HAVING INCREASED TOLERANCE TO HERBICIDES” (BASF SE, priority 2010, published 2013)

Biological target: Chlamydomonas HPPD2 (Chlamydomonas reinhardtii, UniProt A0A2K3DET5)
Test: HPPD activity assay, wildtype enzyme
Assay type: biochemical
Settings: calculated from IC50 with Cheng-Prusoff equation, read-out: dissociation constant Ki
Experimental: HPPD produces homogentisic acid and CO2 from 4-hydroxyphenylpyruvate (4-HPP) and O2. The activity assay for HPPD is based on the analysis of homogentisic acid by reversed phase HPLC.
The assay mixture can contain 150 mM potassium phosphate buffer pH 7.0, 50 mM L-ascorbic acid, 1 μM FeSO4 and 7 μg of purified enzyme in a total volume of 1 ml.
Inhibitors are dissolved in DMSO (dimethylsulfoxide) to a concentration of 20 mM or 0.5 mM, respectively. From this stock solution serial five-fold dilutions are prepared in DMSO, which are used in the assay. The respective inhibitor solution accounts for 1% of the assay volume. […]
10 μl of the eluate is analyzed by reversed phase HPLC on a Symmetry® C18 column (particle size 3.5 μm, dimensions 4.6×100 mm; Waters) using 5 mM H3PO4/15% ethanol (w/w) as an eluent.
Homogentisic acid is detected electrochemically and quantified by measuring peak areas (Empower software; Waters).
Activities are normalized by setting the uninhibited enzyme activity to 100%. IC50 values are calculated using non-linear regression. […]
5 μl of the cleared sample is analyzed on an Atlantis T3 column (particle size 3 μm, dimensions 3×50 mm; Waters) by isocratic elution using 90% 10 mM NaH2PO4 pH 2.2, 10% methanol (v/v).
HGA is detected electrochemically at 750 mV (mode: DC; polarity: positive) and quantified by integrating peak areas (Empower software; Waters). […]

Sequence of Chlamydomonas HPPD2 (A0A2K3DET5 entry or part of it): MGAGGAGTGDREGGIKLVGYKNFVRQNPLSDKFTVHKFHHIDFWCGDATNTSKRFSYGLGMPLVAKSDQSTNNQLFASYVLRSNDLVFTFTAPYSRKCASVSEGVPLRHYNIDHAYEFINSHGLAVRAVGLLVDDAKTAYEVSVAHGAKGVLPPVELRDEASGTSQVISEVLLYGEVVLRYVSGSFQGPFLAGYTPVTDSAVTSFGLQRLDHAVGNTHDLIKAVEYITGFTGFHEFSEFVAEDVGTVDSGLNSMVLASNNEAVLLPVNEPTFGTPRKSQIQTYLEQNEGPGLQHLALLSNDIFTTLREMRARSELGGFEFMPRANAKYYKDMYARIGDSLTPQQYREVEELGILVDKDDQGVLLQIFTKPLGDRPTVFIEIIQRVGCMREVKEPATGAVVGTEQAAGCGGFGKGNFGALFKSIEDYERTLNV

Compound: CC1=NOC(c2c(Cl)ccc(C3=C(O)c4ncccc4N(CC(F)F)S3(=O)=O)c2Cl)C1 (stereo not shown) [Inhibitor 1, 3-[2,4-dichloro-3-(3-methyl-4,5-dihydroisoxazol-5-yl)phenyl]-1-(2,2-difluoroethyl)-2,2-dioxo-pyrido[3,2-c]thiazin-4-ol]
- Ki: 8 nM
